Holding throughout (assay type): cell-based
For one series, the system named is T7-PMS134 BL21 cells. Description: EMS toxicity, cell viability by colony formation. The protocol:
(§1) T7-PMS134 cells and empty vector control cells were grown with IPTG for 48 hours and then diluted 1:50 in LB plus IPTG and increasing amounts of ethyl methane sulfonate (EMS) from 0, 1, 10, 50, 100, and 200 μM. 10 μL aliquots of culture (diluted in 300 μl LB) were plated out on LB agar plus ampicillin plates and grown overnight at 37 C. The next day plates were analyzed for cell viability as determined by colony formation. […] The 200 μM treatment was toxic for both lines.

Series [1] relates to empty vector control cells. The protocol: as §1
A further series concerns BL21 cells. Description: Kanamycin-resistance (hypermutability) assay in BL21. Conditions: for KAN resistant cells: after 24 hr IPTG-induction; for KAN resistant clones: non-IPTG-induced conditions. The protocol: However, upon addition of the inducer IPTG, the cells express high-levels of T7 polymerase due to the IPTG-inducible element that drives expression of the polymerase that is resident within the genome of the BL21 cells (30). The BL21 cells are chloramphenicol resistant due to the plasmid that expresses lysozyme within the cell. To introduce the pT7-hPMS 134 or the pT7-hPMSR3 genes into BL21 cells, the cells were made competent by incubating the cells in ice cold 50 mM CaCl2 for 20 minutes, followed by concentrating the cells and adding super-coiled plasmid DNA as describe (Maniatis, T. et. al. Cold Spring Harbor Laboratory Press, Third Edition, 2001). Ampicillin resistant BL21 were selected on LB-agar plates [[…], 1.5% bactoagar, pH 7.0 (Difco)] plates containing 25 μg/ml chloramphenicol and 100 μg/ml ampicillin. The next day, bacterial colonies were picked and analyzed for vectors containing an intact pTACPMS134 or pTAC empty vector by restriction endonuclease digestion and sequence analysis.
Kanamycin-resistant assays using BL21 cells expressing the V5-tagged or untagged PMS134 or PMSR3 polypeptides were carried out as described above. BL21 bacterial cells that harbor the empty vector, pT7-PMS134 or pT7-PMSR3 were grown overnight in LB supplemented with 100 μg/ml ampicillin. The overnight cultures were diluted 1:100 into fresh ampicillin containing medium and grown for 2.5 hours at 37° C. with continuous shaking. When the cells reached an optical density (OD) of 0.6, measured at 600 nm, IPTG was added to each culture to a final concentration of 0.5 mM. Cells were incubated for 24, and 48 hours; at those time points cells were removed for SDS-PAGE analysis and plating (see above). BL21/pT7 (empty vector), BL21/pT7-PMS134, and BL21/pT7-R3 cells were plated onto LB plates, LB plates that contained 100 ug/ml ampicillin, and plates that contain 50 ug/ml Kanamycin. The equivalent of 1×10^7 cells/plate were spread onto the plates. BL21 cells that harbor the empty vector are capable of growth on LB plates as well as LB plates that contain 100 ug/ml ampicillin; that is as expected since the pT7 expression vector renders the cells ampicillin resistant. The vector only control is not capable of growth on Kanamycin.

In series [2] the test system is kanamycin resistant pT7-PMS134 and pT7-PMSR3 colonies. Description: Genetic stability of kanamycin resistance (revertants). As to the method: As described in EXAMPLE 2 and 3, manipulation of the MMR pathway in microbes results in alterations within the host genome and the ability to select for a novel output traits. It is important that the mutations introduced as a result of defective MMR is genetically stable and passed on to daughter cells once a desired output pathway is established. To determine the genetic stability of mutations introduced into the microbial genome the following experiment was performed. Five independent colonies from pT7-PMS134 and pT7-PMSR3 that are kanamycin resistance were grown overnight from an isolated colony in 5 ml of LB. Next, 1 μL of the overnight culture from these cultures were inoculated into another 5 mL of LB and grown overnight to saturation. Under these growth conditions the microbial cells have divided over 20 generations. Therefore, if the new output trait generated by alteration of MMR is unstable, the cells should “revert” back from kanamycin resistance to kanamycin sensitivity. Cells were plated onto LB plates and incubated overnight at 37° C. Next, the colonies (about 1,000/plate) were replica plated to LB, LB^amp100, and LB^kan50 plates and incubated at 37° C. overnight. […] Extended culturing of cells and replica plating found no reversions of KAN resistance in cultures grown in the absence of IPTG, which produce no PMS134 as determined by western blot (data not shown).

Read-outs that look alike come from different tables or passages of the source.

Consider `CCOS(C)(=O)=O` [EMS, ethyl methane sulfonate], for which the colony number (with T7-PMS134 BL21 cells (1 uM EMS); in the series on T7-PMS134 BL21 cells (10 uM EMS); in series [1] (1 uM EMS); in series [1] (10 uM EMS)) was over 1000 colonies each time. In addition, in the series on T7-PMS134 BL21 cells (50 μM EMS), the “colony number (in words)” value is “No difference”. Further, in the series on T7-PMS134 BL21 cells (100 μM EMS), the “reduction in colony number” value was 3 fold. Moreover, the “toxicity (in words)” value (in the series on T7-PMS134 BL21 cells (200 μM EMS); in series [1] (200 μM EMS)) was “toxic” throughout. Also, the “number of control cells” value is recorded as 30 in series [1] (50 μM EMS) and 0 in series [1] (100 μM EMS).

B1: PMSR3: human PMS2 related gene product (SEQ ID NO: 24) (protein, listed as Homo sapiens)
chain: MCPWRPRLGRRCMVSPREADLGPQKDTRLDLPRSPARAPREQNSLGEVDRRGPREQTRAPATAAPPRPLGSRGAEAAEPQEGLSATVSACFQEQQEMNTLQGPVSFKDVAVDFTQEEWRQLDPDEKIAYGDVMLENYSHLVSVGYDYHQAKHHHGVEVKEVEQGEEPWIMEGEFPCQHSPEPAKAIKPIDRKSVHQICSGPVVLSLSTAVKELVENSLDAGATNIDLKLKDYGVDLIEVSDNGCGVEEENFEGLISFSSETSHM
Turning to B1, in the series on BL21 cells, the KAN resistant cells result is reported as “significant number” and the KAN resistant clones result is listed as “failed to produce any KAN resistant clones”.

B2: PMS134: dominant negative human PMS2 truncated at codon 134; N-terminal 133 amino acids (SEQ ID NO: 21) (protein, listed as Homo sapiens)
chain: MKQLPAATVRLLSSSQIITSVVSVVKELIENSLDAGATSVDVKLENYGFDKIEVRDNGEGIKAVDAPVMAMKYYTSKINSHEDLENLTTYGFRGEALGSICCIAEVLITTRTAADNFSTQYVLDGSGHILSQK
As to B2, in the series on BL21 cells, the KAN resistant cells entry is listed as “significant number” and the KAN resistant clones entry is on record as “failed to produce any KAN resistant clones”. The “revertants of KAN resistance” value in series [2] (continually grown in IPTG, out of 1200) is reported as 5. Moreover, the “loss of KAN resistant clones” value in series [2] (grown in the absence of IPTG) is on record as “No loss”.

The values are drawn from US7695969B2, “Methods for generating hypermutable microbes” (priority 2000, dated 2010).
